Measurements from patent US20230203025A1, “ENHANCERS OF PARTICULATE GUANYLYL CYCLASE RECEPTOR A” (Mayo Foundation for Medical Education and Research, priority 2020, published 2023).
“And” between values parts separate entries of the source, which are not always exact repeats. Equal entries are not always repeated.

How the values were obtained:
pGC-A = target: T1, pGC-A (Homo sapiens, UniProt P16066); experiment: cGMP production by HTRF in HEK293 cells overexpressing pGC-A; type: cell-based; conditions: for Emax: HEK293, cGMP normalized to maximal amount produced by an EC80 concentration of ANP, read-out: Max efficacy; for EC50: HEK293 pGC-A cells, cGMP HTRF, in the presence of EC20 concentration of ANP
T1 construct: expressed in transfected cells; host or cells: HEK293
T1 sequence (P16066 33-1061): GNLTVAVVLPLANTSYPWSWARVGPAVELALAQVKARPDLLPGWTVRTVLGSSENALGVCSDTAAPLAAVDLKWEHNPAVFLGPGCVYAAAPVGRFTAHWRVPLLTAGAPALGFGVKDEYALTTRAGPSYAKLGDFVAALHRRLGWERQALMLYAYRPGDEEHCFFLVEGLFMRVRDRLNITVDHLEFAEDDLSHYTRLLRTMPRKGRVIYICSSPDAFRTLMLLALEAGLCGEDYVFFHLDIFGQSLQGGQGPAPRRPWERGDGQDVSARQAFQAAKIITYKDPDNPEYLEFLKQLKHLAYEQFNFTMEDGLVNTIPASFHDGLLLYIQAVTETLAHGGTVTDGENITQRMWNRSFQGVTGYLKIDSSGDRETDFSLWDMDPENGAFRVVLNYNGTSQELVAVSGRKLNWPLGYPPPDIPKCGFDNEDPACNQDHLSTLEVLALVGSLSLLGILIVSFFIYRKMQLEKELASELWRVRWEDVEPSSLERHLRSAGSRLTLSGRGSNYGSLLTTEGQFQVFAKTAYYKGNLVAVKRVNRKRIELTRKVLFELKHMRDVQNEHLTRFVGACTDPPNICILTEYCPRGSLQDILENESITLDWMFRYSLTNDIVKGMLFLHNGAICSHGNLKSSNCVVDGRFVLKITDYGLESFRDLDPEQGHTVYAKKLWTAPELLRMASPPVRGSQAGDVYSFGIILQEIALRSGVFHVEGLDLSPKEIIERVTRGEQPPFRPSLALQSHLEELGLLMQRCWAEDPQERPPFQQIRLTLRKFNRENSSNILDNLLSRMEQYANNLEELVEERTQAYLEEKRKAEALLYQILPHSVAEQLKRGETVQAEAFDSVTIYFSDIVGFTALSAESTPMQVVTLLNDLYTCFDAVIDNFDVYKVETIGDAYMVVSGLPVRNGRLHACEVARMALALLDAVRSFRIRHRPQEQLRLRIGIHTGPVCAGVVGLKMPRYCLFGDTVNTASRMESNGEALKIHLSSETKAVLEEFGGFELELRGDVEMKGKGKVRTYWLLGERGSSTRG
T1 sequence (P01160 124-151 partner limits assumed): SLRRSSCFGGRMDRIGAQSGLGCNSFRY
Method: Assay details: 20 nL of 10 μM test compound in DMSO was added to columns 5-48 of 1536 well white high base screening plates (Corning, New York, N.Y.) cells using 550 ECHO acoustic dispenser (Labcyte, San Jose, Calif.). […] HEK293 cells overexpressing GC-A were resuspended in assay media (OptimMem media containing 2% Heat-inactivated Fetal bovine serum and L-glutamine) at a density of 6×10^5 cells/mL and 2 μL were plated in screening plates (1200 cells/well) in suspension using a Bioraptr 2. Plates were spun at 1000 rpm for 1 min and incubated for 30 min at room temperature. 1.5 μL d2-labled cGMP followed by 1.5 uL Eu^3+ cryptate-labeled anti-cGMP cGMP detection kit (CiBio; #62GM2PEC) prepared according to manufacturer's protocol were added to all wells using a Bioraptr 2 and TR-FRET signal was detected on an EnVision detector (PerkinElmer).

[1] = test system: primary human cardiomyocytes (HCMs); experiment: inhibition of TGF-beta 1 induced human cardiomyocyte hypertrophy; type: cell-based; conditions: TGF-β1 5 ng/mL
Method: Methods (Inhibition of Human Cardiac Hypertrophy In Vitro): primary human cardiomyocytes (HCMs) were grown in growth media to 50% confluence and then were subjected to serum starvation for 24 hrs. After that, 5 ng/mL of the cytokine TGFβ-1 (R&D Systems) was added to the media for 48 hrs to induce HCM hypertrophy. […] Normal cell buffer served as a vehicle only control, where TGFP-1 alone served as the positive control. Analysis for cell surface area (μm^2) was performed using the ImageJ software at the end of the study.
Results: to further support the cGMP generation in human primary cells leads to favorable biological GC-A mediated, the anti-hypertrophic effects were assessed of Compound 19 on live HCMs stressed with TGF-β1 (5 ng/mL), using a state-of-the-art live cell imaging platform (IncuCyte System).

[2] = rodent microsomal stability; type: in vitro ADME; conditions: FIG. 3
in vitro solubility = type: physicochemical; conditions: FIG. 3

| Structure (SMILES) | Emax (pGC-A) | EC50 (pGC-A) | further results |
| --- | --- | --- | --- |
| O=C(Nc1nc2c(F)cc(F)cc2s1)C1CCCN(Cc2ccccc2)C1 (centres unmarked) [Compound 16] | 66% | 2410 nM | – |
| O=C(Nc1nc2c(F)cc(F)cc2s1)C1CCN(C(=O)C2CC2)C1 (centres unmarked) [Compound 22] | 82% | 6250 nM | – |
| CN(C)CCN1CCC(C(=O)Nc2nc3c(F)cc(F)cc3s2)C1 (centres unmarked) [Compound 32] | 81% | 1630 nM | – |
| O=C(Nc1nc2c(F)cc(F)cc2s1)C1CCN(C(=O)C2CCC2)C1 (centres unmarked) [Compound 23] | 82% | 6060 nM | – |
| CN1CCCC(C(=O)Nc2nc3c(F)cc(F)cc3s2)C1 (centres unmarked) [Compound 17] | 81% | 1230 nM | – |
| CC(C)(C)C(=O)N1CCC(C(=O)Nc2nc3c(F)cc(F)cc3s2)C1 (centres unmarked) [Compound 21] | 84% | 2090 nM | – |
| CS(=O)(=O)N1CCCC(C(=O)Nc2nc3c(F)cc(F)cc3s2)C1 (centres unmarked) [Compound 15] | 77% | 1750 nM | – |
| O=C(Nc1nc2c(F)cc(F)cc2s1)C1CCCN(C(=O)C2CC2)C1 (centres unmarked) [Compound 9] | 82% | 1970 nM | – |
| O=C(Nc1nc2c(F)cc(F)cc2s1)C1CCNC1 (centres unmarked) [Compound 31] | 84% | 1570 nM | – |
| CS(=O)(=O)N1CCC(C(=O)Nc2nc3c(F)cc(F)cc3s2)C1 (centres unmarked) [Compound 28] | 66% | 990 nM | – |
| O=C(Nc1nc2c(F)cc(F)cc2s1)C1CCN(C(=O)Cc2ccccc2)C1 (centres unmarked) [Compound 27] | 66% | 2690 nM | – |
| CC[C@H](C)[C@@H]1NC(=O)[C@H](CCCNC(=N)N)NC(=O)[C@H](CC(=O)O)NC(=O)[C@H](CCSC)NC(=O)[C@H](CCCNC(=N)N)NC(=O)CNC(=O)CNC(=O)[C@H](Cc2ccccc2)NC(=O)[C@@H](NC(=O)[C@H](CO)NC(=O)[C@H](CO)NC(=O)[C@H](CCCNC(=N)N)NC(=O)[C@H](CCCNC(=N)N)NC(=O)[C@H](CC(C)C)NC(=O)[C@@H](N)CO)CSSC[C@@H](C(=O)N[C@@H](CC(N)=O)C(=O)N[C@@H](CO)C(=O)N[C@@H](Cc2ccccc2)C(=O)N[C@@H](CCCNC(=N)N)C(=O)N[C@@H](Cc2ccc(O)cc2)C(=O)O)NC(=O)CNC(=O)[C@H](CC(C)C)NC(=O)CNC(=O)[C@H](CO)NC(=O)[C@H](CCC(N)=O)NC(=O)[C@H](C)NC(=O)CNC1=O [ANP, reference compound] | – | – | inhibition of HCM hypertrophy ([1]; ANP 10^−8 M alone): significant inhibition; inhibition of HCM hypertrophy ([1]; ANP 10^−10 M alone): no effect |
| CC(C)(C)OC(=O)N1CCC(C(=O)Nc2nc3c(F)cc(F)cc3s2)C1 (centres unmarked) [Compound 20] | 74% | 4380 nM | – |
| CN1CCC(C(=O)Nc2nc3c(F)cc(F)cc3s2)C1 (centres unmarked) [Compound 30] | 84% | 1790 nM | – |
| CC(C)(C)C(=O)N1CCCC(C(=O)Nc2nc3c(F)cc(F)cc3s2)C1 (centres unmarked) [Compound 8] | 73% | 5070 nM | – |
| CC(=O)N1CCC(C(=O)Nc2nc3c(F)cc(F)cc3s2)CC1 [Compound 3] | 74% | 1150 nM | – |

| Structure (SMILES) | Emax (pGC-A) | EC50 (pGC-A) | further results |
| --- | --- | --- | --- |
| O=C(Nc1nc2c(F)cc(F)cc2s1)C1CCCNC1 (centres unmarked) [Compound 18] | 82% | 1050 nM | – |
| O=C(Nc1nc2c(F)cc(F)cc2s1)C1CCN(C(=O)c2ccccc2)C1 (centres unmarked) [Compound 25] | 84% | 6860 nM | – |
| CC(C)(C)C(=O)N1CCC(C(=O)Nc2nc3c(F)cc(F)cc3s2)CC1 [Compound 1] | 83% | 2180 nM and 1380 nM and 1570 nM | rodent microsomal stability compared to compound A [2]: improved; solubility compared to compound A (in vitro solubility): improved; potency compared to compound A (pGC-A; HEK pGC-A cGMP, FIG. 2-3): improved potency; Max efficacy (pGC-A; cGMP normalized to maximal amount produced by an EC80 concentration of ANP): 76% and 77% |
| O=C(Nc1nc2c(F)cc(F)cc2s1)C1CCCN(C(=O)c2ccccc2)C1 (centres unmarked) [Compound 12] | 64% | 3360 nM | – |
| CC(C)(C)CC(=O)N1CCCC(C(=O)Nc2nc3c(F)cc(F)cc3s2)C1 (centres unmarked) [Compound 13] | 74% | 3570 nM | – |
| O=C(Nc1nc2c(F)cc(F)cc2s1)C1CCN(C(=O)C2CCC2)CC1 [Compound 2] | 79% | 1720 nM | – |
| CC(=O)N1CCCC(C(=O)Nc2nc3c(F)cc(F)cc3s2)C1 (centres unmarked) [Compound 11] | 79% | 1650 nM | – |
| CC(C)(C)C(=O)N1CCC(C(=O)Nc2nc3c(Cl)cccc3s2)CC1 [Compound 6] | 51% | 2000 nM | – |
| CC(=O)N1CCC(C(=O)Nc2nc3c(F)cc(F)cc3s2)C1 (centres unmarked) [Compound 24] | 84% | 560 nM | – |
| CC(C)(C)OC(=O)N1CCCC(C(=O)Nc2nc3c(F)cc(F)cc3s2)C1 (centres unmarked) [Compound 7] | 64% | 8260 nM | – |
| O=C(Nc1nc2c(F)cc(F)cc2s1)C1CCCN(C(=O)Cc2ccccc2)C1 (centres unmarked) [Compound 14] | 71% | 2020 nM | – |
| CC(C)N1CCC(C(=O)Nc2nc3c(F)cc(F)cc3s2)CC1 [Compound 4] | 80% | 840 nM | – |
| CC(C)(C)C(=O)N1CCC(C(=O)Nc2nc3c(Cl)ccc(Cl)c3s2)CC1 [Compound 5] | – | > 66000 nM | – |
| CC(C)(C)CC(=O)N1CCC(C(=O)Nc2nc3c(F)cc(F)cc3s2)C1 (centres unmarked) [Compound 26] | 81% | 3230 nM | – |
| O=C(Nc1nc2c(F)cc(F)cc2s1)C1CCCN(C(=O)C2CCC2)C1 (centres unmarked) [Compound 10] | 77% | 1810 nM | – |
